Test results published in patent US8455543B2, “Platinum complexes and methods for inhibiting tumor cell proliferation” (University of South Florida, priority 2004, dated 2013).
Where two headings read alike, the source gives them in different places.

Columns and labels:
Assay in all cases: MTT assay, growth inhibition of human tumor cells
Assay type in all cases: cell-based
Calu-1 = Calu-1 cells, 4 days treatment, several values = separate determinations
Panc-1 = test system: Panc-1
A549 = test system: A549
[1] = Homo sapiens, 96 h, MTT assay, Panc-1 cells, 4 days treatment, several values = separate determinations
[2] = MTT assay, Panc-1 cells, 4 days treatment, several values = separate determinations

## O=c1[nH]cc(F)c(=O)[nH]1 [5-FU, 5-fluorouracil, reference compound]
Calu-1; Homo sapiens, 96 h
  IC50: 250 µM
Panc-1; [1]
  IC50: 5 µM

## NC(=O)NO [hydroxyurea, reference compound]
Calu-1; Homo sapiens, 96 h
  IC50: > 250 µM
Panc-1; [1]
  IC50: 1.3 µM

## Pt^IV(en) (HOHN—CO—NH2)(NO2) 5-FU [CPA-13]
Panc-1; [2]
  IC50: 2.3 µM

## [Cis-Pt IV(NH3)2(Cl)2(NO2) (5-FU)] [JP3]
Panc-1; [2]
  IC50: 2.6 µM

## [Cis-Pt IV(NH3)2(Cl)2(NO2) (OP(-salicylate)(OH)O)] [JP6]
Panc-1
  IC50: 5.5 µM

## cis-[Pt^IV(NH3)2Cl2NO2-5FU [CPA-14]
Calu-1
  IC50: 13 µM

## cis-[Pt^IV(NH3)2Cl2NO2-salicylate] [CPA-19]
A549
  IC50: 37 µM
Panc-1
  IC50: 20 µM
